# Measurements published in PMC10349806 (Nature Communications, 2023).
# Values joined by “and” are separate entries in the source; they are usually repeats but may differ in a detail not shown here. Equal entries are not always repeated.
# Experiments:
# [1] = target: T1, PfCRT variant D137N (Plasmodium falciparum, UniProt Q9N623, A220S/D137N/I356T/K76T/M74I/N326S/N75E/Q271E/R371I); test: CQ uptake assay, oocytes expressing D137N; type: cell-based
# T1 sequence (Q9N623 1-424 M74I/N75E/K76T/D137N/A220S/Q271E/N326S/I356T/R371I): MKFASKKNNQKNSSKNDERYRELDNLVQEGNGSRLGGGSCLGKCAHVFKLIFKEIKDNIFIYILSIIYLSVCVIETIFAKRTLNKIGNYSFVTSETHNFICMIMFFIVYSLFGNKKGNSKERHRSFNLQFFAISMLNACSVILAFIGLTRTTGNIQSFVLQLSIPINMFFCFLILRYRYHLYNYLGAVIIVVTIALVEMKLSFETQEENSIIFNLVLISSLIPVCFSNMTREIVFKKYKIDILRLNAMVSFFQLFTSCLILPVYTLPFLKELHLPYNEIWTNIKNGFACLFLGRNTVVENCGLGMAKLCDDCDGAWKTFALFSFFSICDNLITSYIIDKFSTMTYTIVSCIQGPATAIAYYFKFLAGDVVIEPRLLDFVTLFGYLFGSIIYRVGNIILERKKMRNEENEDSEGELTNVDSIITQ
# Procedure: (§1) Site-directed mutagenesis of PfCRT^Dd2 was performed as described using the megaprimer method with overlap extension[21],[54]. The primer pairs used are listed in Supplementary Table 6. Please note that a codon-optimized and oocyte-adapted version of PfCRT^Dd2 was used[22] (Supplementary Fig. 16). The resulting DNA fragment was cloned into the SP64T expression vector and verified by sequencing.
# (§2) Oocytes were obtained as described previously. Briefly, adult (>2 years old) female X. laevis frogs (NASCO) were anesthetized in a cooled solution of ethyl 3-amino benzoate methanesulfonate (0.1%, w/v), followed by a surgical removal of parts of the ovary. The ovary lobes were carefully dissected and small pieces of oocytes were incubated in Ca^2+-free ND96 buffer (96 mM NaCl, 2 mM KCl, 1 mM MgCl2 buffered with 5 mM HEPES/NaOH, pH 7.5) supplemented with collagenase D (0.1%, w/v; Roche), BSA (0.5%, w/v), and 9 mm Na2HPO4 at 18 °C for 14-16 h while gentle shaking. After incubation, the oocytes were carefully washed several times with ND96 buffer (96 mM NaCl, 2 mM KCl, 1.8 mM CaCl2, 1 mM MgCl2 buffered with 5 mM HEPES/NaOH, pH 7.5) supplemented with 100 mg l^−1 gentamycin). Defolliculated and healthy-looking stage V-VI oocytes were manually selected for RNA microinjection. The RNA was generated as following: The codon-optimized sequences of PfCRT variants were cloned into the pSP64T expression vector. After vector linearization using the restriction endonucleases BamHI or SalI (New England Biolabs), transcription was performed using the in vitro SP6 mMessage mMachine Kit (Ambion)[34]. The obtained RNA was kept at −80 °C and diluted with nuclease-free water to a concentration of 0.6 μg μl^−1. Precision-bore glass capillary tubes (3.5-inch glass capillaries; Drummond Scientific Co.) were pulled on a vertical puller (P-87 Flaming/Brown micropipette puller, Sutter Instrument Co.), graduated, and placed on a microinjector (Nanoject II Auto-Nanoliter Injector, Drummond Scientific Co.). 50 nl of nuclease-free water alone (control oocytes) or 50 nl of 0.6 μg μl^−1 RNA were injected under stereomicroscopic control. Injected oocytes were incubated for 46–72 h at 18 °C with twice-daily buffer changes before usage in experiments.
# (§3) Drug uptake assays were performed as described previously[21],[22],[24],[34]. […] The direction of radio-labeled drug transport is here from the mostly acidic extracellular solution (pH 4.5 or 6.0, as indicated) into the oocyte cytosol (pH ∼ 7.2), which corresponds to the efflux of drug from the acidic digestive vacuole (pH 5.2) into the parasite cytoplasm (pH 7.2). The topology of PfCRT in the oolemma is such that both the N- and C-terminus face the extracellular milieu[3],[22]. In the parasite, the N- and C-terminus face the lumen of the digestive vacuole. CQ uptake kinetics were performed by incubating oocytes in ND96 buffer adjusted to a pH of 4.5, 5.0, 5.5, or 6.0 and supplemented with 50 nM [^3H]CQ and one of 7 different CQ concentrations (10 µM, 50 µM, 100 µM, 200 µM, 300 µM, 400 µM, 500 µM CQ). The reaction was stopped at the 60 min time point, which is in the linear uptake range[22],[34] (Supplementary Fig. 17). For determination of the amount of drug uptake for each oocyte, the reaction medium was removed and the oocytes were washed three times with 2 ml of ice-cold ND96 buffer. Each oocyte was individually transferred to a scintillation vial containing 5% sodium dodecyl sulfate (200 μl) for lysis. The radioactivity of each sample was measured using a liquid scintillation analyzer Tri-Carb 4910 TR (PerkinElmer). Oocytes that were injected with water instead of RNA were analyzed in parallel, representing the uptake of a drug by diffusion and/or endogenous permeation pathways. The resulting value represents the “background“ level of drug accumulation in oocytes (in-depth discussion in[22]). […]
# [2] = tested on: PfCRT variant E207G; test: CQ uptake assay, oocytes expressing E207G; type: cell-based, Plasmodium falciparum
# Procedure: as §1, §2, §3
# [3] = tested on: PfCRT variant E207R; test: CQ uptake assay, oocytes expressing E207R; type: cell-based, Plasmodium falciparum
# Procedure: as §1, §2, §3
# [4] = tested on: PfCRT variant E207V; test: CQ uptake assay, oocytes expressing E207V; type: cell-based, Plasmodium falciparum
# Procedure: as §1, §2, §3
# [5] = D137N, 50 µM CQ, 1 h, mean ± SEM
# [6] = E207G, 50 µM CQ, 1 h, mean ± SEM
# [7] = pH 4.5, individual replicates, Fig 6b
# [8] = pH 6.0, individual replicates, Fig 6b
# [9] = ratio of activity pH 4.5 / pH 6.0
# [10] = E207R, 50 µM CQ, 1 h, mean ± SEM
# [11] = E207V, 50 µM CQ, 1 h, mean ± SEM
smiles,measurement,setting,value
"CCN(CC)CCCC(C)Nc1ccnc2cc(Cl)ccc12 (stereo not drawn) [CQ, chloroquine]",Activity at pH 4.5,[1]; [5],0.57 ± 0.14 pmol h-1 oocyte-1
same,Activity at pH 6.0,[1]; [5],0.95 ± 0.18 pmol h-1 oocyte-1
same,R-value,"[1]; D137N, CQ transport at pH 4.5 / pH 6.0",0.59 ± 0.04
same,D137N transport activity pH 4.5,"[1]; pH 4.5, single replicates, Fig 1d left",0.77 pmol oocyte-1 h-1 and 0.37 pmol oocyte-1 h-1 and 0.63 pmol oocyte-1 h-1
same,D137N R-value,"[1]; pH 4.5 vs pH 6.0, Fig 1d left",0.64 and 0.53 and 0.59
same,D137N transport activity pH 6.0,"[1]; pH 6.0, single replicates, Fig 1d left",1.20 pmol oocyte-1 h-1 and 0.70 pmol oocyte-1 h-1 and 1.07 pmol oocyte-1 h-1
same,Activity at pH 4.5,[2]; [6],2.26 ± 0.46 pmol h-1 oocyte-1
same,Activity at pH 6.0,[2]; [6],2.55 ± 0.15 pmol h-1 oocyte-1
same,R-value,"[2]; E207G, CQ transport at pH 4.5 / pH 6.0",0.88 ± 0.06
same,E207G transport activity pH 4.5,[2]; [7],2.31 pmol oocyte-1 h-1 and 2.79 pmol oocyte-1 h-1 and 1.67 pmol oocyte-1 h-1
same,E207G transport activity pH 6.0,[2]; [8],2.70 pmol oocyte-1 h-1 and 2.76 pmol oocyte-1 h-1 and 2.19 pmol oocyte-1 h-1
same,E207G R-value,[2]; [9],0.86 and 1.01 and 0.76
same,Activity at pH 4.5,[3]; [10],2.23 ± 0.16 pmol h-1 oocyte-1
same,Activity at pH 6.0,[3]; [10],2.69 ± 0.23 pmol h-1 oocyte-1
same,R-value,"[3]; E207R, CQ transport at pH 4.5 / pH 6.0",0.84 ± 0.04
same,E207R transport activity pH 4.5,[3]; [7],2.49 pmol oocyte-1 h-1 and 2.35 pmol oocyte-1 h-1 and 1.85 pmol oocyte-1 h-1
same,E207R transport activity pH 6.0,[3]; [8],3.24 pmol oocyte-1 h-1 and 2.53 pmol oocyte-1 h-1 and 2.29 pmol oocyte-1 h-1
same,E207RR-value,[3]; [9],0.77 and 0.93 and 0.81
same,Activity at pH 4.5,[4]; [11],2.0 ± 0.13 pmol h-1 oocyte-1
same,Activity at pH 6.0,[4]; [11],2.09 ± 0.15 pmol h-1 oocyte-1
same,R-value,"[4]; E207V, CQ transport at pH 4.5 / pH 6.0",0.96 ± 0.02
same,E207V transport activity pH 4.5,[4]; [7],2.33 pmol oocyte-1 h-1 and 1.85 pmol oocyte-1 h-1 and 1.83 pmol oocyte-1 h-1
same,E207V transport activity pH 6.0,[4]; [8],2.45 pmol oocyte-1 h-1 and 1.85 pmol oocyte-1 h-1 and 1.96 pmol oocyte-1 h-1
same,E207V R-value,[4]; [9],0.95 and 1.00 and 0.93
